Columns and labels:
[1] = tested on: rat striatal slices preloaded with [3H]DA; assay: [3H]DA release assay: drug-evoked [3H]overflow / fractional release from rat striatal slices preloaded with [3H]DA; type: cell-based
Description: Rat striata were rapidly dissected on ice and were sliced using a McIlwain tissue chopper. […] Slices were rinsed with 15 mL fresh buffer and then incubated in fresh buffer containing 0.1 μM [^3 H]DA (6-8 slices/3 mL) for an additional 30 min. Subsequently, slices were rinsed with 15 mL fresh buffer and transferred to a glass superfusion chamber. […] After 60 min of superfusion when basal outflow was stabilized, two 5-min samples (5 mL) were collected to determine basal [^3 H]outflow.
The concentration-response for each drug was determined using a repeated-measures design.
The pH and volume of the solubilized tissue samples were adjusted to those of the superfusate samples.
Fractional release for each superfusate sample was calculated by dividing the tritium collected in each sample by the total tritium present in the tissue at the time of sample collection. Fractional release was expressed as a percentage of total tritium in the tissue at the time of sample collection. Basal outflow was calculated from the average of the tritium collected in the two 5-min samples just before the addition of drug.
Inhibition of synaptosomal and vesicular [^3 H]DA uptake were analyzed by repeated-measures, one-way ANOVA, and by an iterative nonlinear least-squares curve-fitting program (GraphPAD-PRIZM; GraphPAD, San Diego, Calif.) to obtain IC50 values. Dunnett's post hoc test was used to compare treatment means to a single control mean. Also, Duncan's New Multiple Range Test or Fisher's LSD post hoc analysis were used to compare pairs of treatment means. Duncan's New Multiple Range Test was used when significant one-way ANOVA's were obtained or when significant main effects were obtained in the two-way ANOVA's. Fisher's LSD post hoc analysis is a more conservative test, which takes into account error which cumulates during multiple comparisons of pairs of means. Fisher's LSD analysis was used when the interaction term was significant in the two-way ANOVAs, specifically in the post hoc analysis of drug×time interactions. Statistical significance was reached when P<0.05 (two-tailed, unless otherwise indicated).

[2] = tested on: nicotine-evoked [3H]dopamine release from rat striatal slices; nicotinic receptors; assay: Lobeline inhibition of nicotine-evoked [3H]DA release from rat striatal slices; type: cell-based; details: low concentrations
Description: Striatal slices were obtained from rat brain, preincubated with [^3 H]dopamine (0.1 μM) for 30 min and subsequently superfused with Kreb's buffer for 60 min.

rat striatal slices = assay: Endogenous DA and DOPAC content in striatal slices following superfusion with lobeline; type: cell-based
Description: Data are presented as mean±S.E. ng/mg protein. *P<0.05, different from control, P<0.05, **P<0.001, different from control; Dunnett's post hoc test. n=8 rats.
At the end of the superfusion experiment, slices were processed in the endogenous DA and DOPAC content assay described below.
(§1) An aliquot (500 μL) of 0.1 M perchloric acid (pH 1.0) containing 0.14-0.29 μM 3,4-dihydroxybenzylamine hydrobromide (DHBA, internal standard) was added to 100 mg of striatum and the mixture was sonicated with an Ultrasonic Processor (40-Watt Model, Sonics & Materials, Danbury, Conn.). The homogenate was centrifuged at 30,000×g for 10 min at 4° C., and the supernatant was filtered (0.2 μm nylon membrane). An aliquot (50 μL) of the filtrate (1:1, 1:50, 1:100, 1:200 or 1:500 dilution with 0.1 M perchloric acid) was injected onto the high pressure liquid chromatograph with electrochemical detection (HPLC-EC) system. The HPLC-EC system consisted of syringe loading injector (Model 7725, Rheodyne L. P., Cotati, Calif.), Beckman Model 116 HPLC pump (Beckman, Fullerton, Calif.), ESA ODS ultrasphere C18 reverse-phase column ([…]×75 mm, 3 micron particle size, ESA, Bedford, Mass.), and an ESA 5100A coulometric electrochemical detector with a model 5011 detector cell (E1=+0.05 V, E2=+0.32 V). The eluent was 6% acetonitrile, 10 μM EDTA, 1.4 mM 1-octane-sulfonic acid and 76 mM sodium phosphate monobasic (pH 3.1). All separations were performed at room temperature at a flow rate of 1 ml/min. Complete separation of DA and DOPAC and reequilibration of the system required 9 min. The retention time of DA, DOPAC and DHBA standards was used to identify the relevant peak. Peak heights were used to calculate the detected amount of compound based on standard curves. The detection limit of DA and DOPAC was 0.2 and 0.05 pg/50 μL injected, respectively. Recovery of internal standard was routinely 75%.

rat striatum = assay: Striatal DA and DOPAC content after in vivo administration of lobeline
From the text: Male Sprague-Dawley rats (200-250 g) were obtained from Harlan Laboratories (Indianapolis, Ind.) and were housed two per cage with free access to food and water in the Division of Lab Animal Resources at the College of Pharmacy at the University of Kentucky. Experimental protocols involving the animals were in strict accordance with the NIH Guide for the Care and Use of Laboratory Animals and were approved by the Institutional Animal Care and Use Committee at the University of Kentucky.
Rats were killed 24 hrs after the last injection and striata were obtained immediately for determination of endogenous DA and DOPAC content. […] Striata were obtained for endogenous DA and DOPAC content determination 21 days after osmotic minipump implantation. Lobeline dose was expressed in terms of mg of lobeline hemisulfate salt per kg body weight.
as §1

[3] = cited from earlier work
[4] = tested on: locomotor activity in rats; details: rat, in vivo; cited from earlier work
monoamine oxidase = details: cited from earlier work
[5] = tested on: rat striatal synaptosomes; details: cited from earlier work
anxiolytic activity = details: in vivo; cited from earlier work
learning and memory = details: in vivo; cited from earlier work
[6] = chronic, 30 mg/kg/day s.c. osmotic minipump, 21 days
[7] = intermittent, 3 mg/kg s.c. once daily for 10 days
[8] = intermittent, 10 mg/kg s.c. once daily for 10 days

CN1[C@@H](CC(=O)c2ccccc2)CCC[C@H]1C[C@H](O)c1ccccc1 [Lobeline, 2-[G-(β-hydroxyphenethyl)-1-methyl-2-piperidyl]-acetophenone]
effect on fractional release ([1]; 3 μM, 15 and 20 min after addition): significant increase in fractional release
effect on fractional release (low concentrations) ([1]; 0.01-1 μM, entire superfusion period): did not significantly increase fractional release
effect on fractional release (high concentrations) ([1]; 10-100 μM, from 10 min after addition to end): significantly increased
calcium-dependency of [3H]overflow ([1]; calcium-free buffer vs control): not altered
effect on [3H]overflow compared to nicotine ([1]; higher concentrations (10-100 μM)): 8-34 fold
time of peak effect after start of exposure ([1]; lobeline): 10 to 20 min
total [3H]overflow ([1]; lobeline 0.1 μM, calcium-free buffer with 0.5 mM EGTA): 0 ± 0
total [3H]overflow ([1]; lobeline 0.1 μM, control buffer): 0.6 ± 0.4
total [3H]overflow ([1]; lobeline 1 μM, calcium-free buffer with 0.5 mM EGTA): 2.9 ± 0.2
total [3H]overflow ([1]; lobeline 1 μM, control buffer): 2.0 ± 0.6
total [3H]overflow ([1]; lobeline 10 μM, calcium-free buffer with 0.5 mM EGTA): 45.0 ± 4.2
total [3H]overflow ([1]; lobeline 10 μM, control buffer): 31.9 ± 2.2
peak fractional release ([1]; lobeline 30 μM): approximately 15 % of total tritium in the slice
peak fractional release ([1]; lobeline 100 μM): ~30 % of total tritium in the slice
total [3H]overflow ([1]; lobeline 100 μM, calcium-free buffer with 0.5 mM EGTA): 185.0 ± 12.0
total [3H]overflow ([1]; lobeline 100 μM, control buffer): 198.0 ± 20
fractional release over the remainder of the superfusion period ([1]; lobeline 30 and 100 μM): 10-20 % of total tritium in the slice
minimal effective concentration ([1]; read-out: lowest concentration which evoked a significant increase in [3H]overflow): 1 µM
concentrations inhibiting nicotine-evoked DA release [2]: 0.1 to 1 µM
DOPAC overflow from rat striatal slices (rat striatal slices): DOPAC overflow from rat striatal slices is observed
effect on DA or DOPAC content in superfused slices (rat striatal slices; lobeline 0.1-10 μM, 60 min): did not alter DA or DOPAC content
effect on endogenous DA content in superfused slices (rat striatal slices; lobeline 30-100 μM, 60 min): significantly depleted endogenous DA content
effect on endogenous DOPAC content in superfused slices (rat striatal slices; lobeline 30-100 μM, 60 min): increased DOPAC content
striatal DA content (rat striatum; acute, 1 mg/kg s.c., 1 hr): 756 ± 111 ng/mg protein
striatal DOPAC content (rat striatum; acute, 1 mg/kg s.c., 1 hr): 81 ± 12 ng/mg protein
striatal DA content (rat striatum; acute, 3 mg/kg s.c., 1 hr): 761 ± 103 ng/mg protein
striatal DOPAC content (rat striatum; acute, 3 mg/kg s.c., 1 hr): 89 ± 15 ng/mg protein
striatal DA content (rat striatum; acute, 10 mg/kg s.c., 1 hr): 841 ± 76 ng/mg protein
striatal DOPAC content (rat striatum; acute, 10 mg/kg s.c., 1 hr): 82 ± 8 ng/mg protein
striatal DA content (rat striatum; acute, 30 mg/kg s.c., 1 hr): 665 ± 126 ng/mg protein
striatal DOPAC content (rat striatum; acute, 30 mg/kg s.c., 1 hr): 72 ± 10 ng/mg protein
effect on striatal DA or DOPAC content in vivo (rat striatum; any dose or treatment regimen): did not significantly alter
striatal DA content (rat striatum; [6]): 856 ± 144 ng/mg protein
striatal DOPAC content (rat striatum; [6]): 62 ± 10 ng/mg protein
striatal DA content (rat striatum; [7]): 778 ± 27 ng/mg protein
striatal DOPAC content (rat striatum; [7]): 57 ± 12 ng/mg protein
striatal DA content (rat striatum; [8]): 800 ± 41 ng/mg protein
striatal DOPAC content (rat striatum; [8]): 57 ± 3 ng/mg protein
pKa [3]: 8.3
locomotor activity [4]: does not increase locomotor activity
inhibition of monoamine oxidase (monoamine oxidase): does not inhibit monoamine oxidase
DA release from superfused striatal synaptosomes [5]: increase DA release
anxiolytic activity (anxiolytic activity): anxiolytic activity
learning and memory (learning and memory): improvement of learning and memory

Source: patent US6087376A (priority 1998, dated 2000)
